Test results as given in patent US20110003753A1, “COMPOSITIONS AND METHODS FOR DISRUPTING THE FUNCTION OF THE TRANSCRIPTIONAL REPRESSOR COMPONENT Sin3A-PAH2 DOMAIN TO INDUCE DIFFERENTIATION AND GROWTH INHIBITION IN BREAST CANCER” (SAMUEL WAXMAN CANCER RESEARCH FOUNDATION, priority 2009, published 2011).

Experiments:
[1] = test system: MDA-MB-231; experiment: Phenotypic (morphology) changes in culture; format: cell-based, human; details: cells in culture
From the text: FIG. 1: Expression of a decoy peptide corresponding to MAD Sin3 interaction domain (SID) induces markers of differentiation and contact inhibition in MDA-MB-231 breast cancer cells. A. Schematic of the SID peptides and expression constructs used in this study. Shown in the upper panel are the design and sequence of the Tat-SID peptide and Tat-SID^SCR scrambled control. The Tat-SID peptide corresponds to amino acids 5-24 of MAD. This sequence binds Sin3 PAH2 with high affinity and has been previously used to study SID-PAH2 interactions in vitro. Peptides contain a leader sequence (YGRKKRRQGGG, SEQ ID No. 5) corresponding to the human immunodeficiency virus type 1 Tat arginine-rich RNA-binding motif (ARM), which has been mutated (RRR>GGG) to improve nuclear entry. B. Morphological changes induced by SID in MDA-MB-231 and MMTV-Myc. […] D. Confocal IF analyses showing the re-expression of membrane-associated E-cadherin induced by the expression of SID in MDA-MB-231 cells (top row) and MMTV-Myc cells (bottom row) E. Re-expression of nuclear RARβ in MDA-MB-231 cells detected by immunofluorescence microscopy. […]

[2] = target: T1, PAH2 domain of Sin3A and MAD (Mus musculus, UniProt Q60520); experiment: GST pull-down of MAD by the Sin3A PAH2 domain; format: binding
T1 construct: amino acids 306-450 of mSin3A; made in house; host or cells: E. coli (GST-PAH2); MAD from rabbit reticulocyte in vitro translation or immunoprecipitated from MDA-MB-231 lysate
T1 sequence (Q60520 306-450): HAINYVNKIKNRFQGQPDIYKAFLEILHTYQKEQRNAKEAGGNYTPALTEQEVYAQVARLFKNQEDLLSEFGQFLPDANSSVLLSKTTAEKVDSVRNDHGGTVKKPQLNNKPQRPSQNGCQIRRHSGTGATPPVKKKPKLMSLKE
From the text: FIG. 2: SID decoy peptide blocks interactions between Sin3 PAH2 and MAD and interferes with recruitment of members of the Sin3 co-repressor complex. A. GST pull-down of MAD by the Sin3A PAH2 domain is blocked by SID peptide. Sin3A PAH2 domain (amino acids 306-450) was expressed in E. coli as a GST fusion and used in a pull down assay for in vitro interaction with 35S-methionine labeled MAD (left panel) or MAD immunoprecipitated from MDA-MB-231 cell lysates (right panel). 25% of input is shown for in vitro translated MAD and 10% of input for immunoprecipitated MAD (input). Assays were performed using 15 μM Tat-SID or Tat-SID^SCR peptide unless otherwise indicated. […]
GST pull-down assays were performed using the ProFound™ pull-down GST protein:protein interaction kit (Pierce) according to the manufacturer's instructions. […] Gels containing samples from MDA-MB-231 cell lysates were analyzed by Western immunoblot according to standard protocols. Pulled-down MAD was detected using mouse monoclonal anti-MAD (F-1) antibody (Santa Cruz), anti-mouse secondary antibody (Jackson ImmunoResearch), and enhanced chemiluminescence (ECL, Peirce).

[3] = test system: ERα and RARβ; experiment: Re-expression of silenced genes in MDA-MB-231 cells; format: cell-based, human
From the text: This finding coincides with the increased expression of E-cadherin and CRBP1, known RAR target genes and the induction of p27, highly sensitive to RAR activation. […] Thus, blocking specific sites of a component of a transcriptional repressor limited to few transcription factors can be used to induce a differentiation phenotype and anti-tumor effect in breast cancer and that these events may, impart new and/or restore therapeutic targets in breast cancer.

YGRKKRRQGGGVRMNIQMLLEAADYLERRER [SID peptide]
phenotypic change of cell morphology [1]: cobblestone monolayers and well defined cell-cell contact accompanied by cell growth contact inhibition | blocking of interaction between PAH2 domain of Sin3A and in vitro translated MAD ([2]; 35S-methionine labeled MAD, 15 μM peptide unless otherwise indicated): blocked interactions | blocking of interaction between PAH2 domain of Sin3A and MAD immunoprecipitated from MDA-MB-231 cells ([2]; MAD immunoprecipitated from MDA-MB-231 cell lysates, 15 μM peptide): blocked interactions | re-expression of ERα and RARβ [3]: induced the re-expression of ERα and RARβ
